# Literature values, collected in patent EP2691395B1, “PROCESSES FOR PREPARING TOFACITINIB SALTS” (ratiopharm GmbH, priority 2011, dated 2012).
# Conditions: acids listed as possible first acid
row,SMILES,pKa
1,CC(=O)Nc1ccc(C(=O)O)cc1 [4-acetamidobenzoic acid],about 4.3
2,O=C(O)CNC(=O)c1ccccc1 [hippuric acid],about 3.55
3,CCCCCCCCCCCC(=O)O [lauric acid],about 4.9
4,O=C(O)CCCO [4-hydroxybutanoic acid],about 4.72
5,CCCCCCCCCCCCCCCCCC(=O)O [stearic acid],about 4.9
6,O=C(O)[C@H](O)[C@@H](O)[C@H](O)[C@H](O)CO [D-gluconic acid],about 3.76
7,CC1(C(=O)O)CCC(C(=O)O)C1(C)C (stereo not drawn) [(+)-camphoric acid],about 4.72
8,O=C(O)CCCC(=O)O [glutaric acid],about 4.31
9,CC(O)CC(=O)O (stereo not drawn) [3-hydroxybutanoic acid],about 4.70
10,CCCCCC(=O)O [hexanoic or caproic acid],about 4.85
11,O=C(O)Cc1ccccc1 [phenylacetic acid],about 4.28
12,O=C(O)c1cccc(O)c1 [m-hydroxybenzoic acid],about 4.06
13,CCCCCCCC/C=C\CCCCCCCC(=O)O [oleic acid],about 4
14,C=CCCCCCCCCC(=O)O [undecylenic acid],about 4.9
15,O=C(O)CCO [3-hydroxypropanoic acid],about 4.51
16,CCCCCCCCCCCCCCCC(=O)O [palmitic acid],about 4.9
17,O=C(O)c1cc(=O)[nH]c(=O)[nH]1 [orotic acid],about 5.85
18,O=c1[nH]c(=O)c2[nH]c(=O)[nH]c2[nH]1 [uric acid],about 3.89
19,O=C(O)O [carbonic acid],about 6.46
20,CC(CC(=O)O)C(=O)O (stereo not drawn) [methylsuccinic acid],about 4.13
21,O=C(O)c1ccc(O)cc1 [p-hydroxybenzoic acid],about 4.48
22,CCCCCCCC(=O)O [caprylic or octanoic acid],about 4.91
23,O=C(O)/C=C\c1ccccc1 [cis-cinnamic acid],about 3.89
24,CCCCC(=O)O [pentanoic acid],about 4.84
